Measurements reported in US20230339970A1, “CASEIN KINASE 1 DELTA MODULATORS” (priority 2020, published 2023).

Assays:
human CSNK1D = target: T1, human CSNK1D (Homo sapiens, UniProt P48730); assay: Whole Cell nBRET CSNK1D Binding Assay; conditions: living CHO cells stably expressing human CSNK1D tagged with nanoluciferase; NanoBret tracer 130 nM; 2 hours at 37 C
T1 construct: expressed in transfected cells

[1] = target: T2, human recombinant GST cleaved CSNK1D (Homo sapiens, UniProt P48730); assay: Purified Enzyme Assay (ADP-Glo CSNK1D Kinase Assay); assay type: biochemical; conditions: 2 nM CSNK1D; peptide substrate 150 μM; ATP 20 μM; 45 minutes at room temperature
T2 construct: GST (cleaved yes); purchased University of Dundee clone DU 19064
T2 sequence (P48730 whole entry): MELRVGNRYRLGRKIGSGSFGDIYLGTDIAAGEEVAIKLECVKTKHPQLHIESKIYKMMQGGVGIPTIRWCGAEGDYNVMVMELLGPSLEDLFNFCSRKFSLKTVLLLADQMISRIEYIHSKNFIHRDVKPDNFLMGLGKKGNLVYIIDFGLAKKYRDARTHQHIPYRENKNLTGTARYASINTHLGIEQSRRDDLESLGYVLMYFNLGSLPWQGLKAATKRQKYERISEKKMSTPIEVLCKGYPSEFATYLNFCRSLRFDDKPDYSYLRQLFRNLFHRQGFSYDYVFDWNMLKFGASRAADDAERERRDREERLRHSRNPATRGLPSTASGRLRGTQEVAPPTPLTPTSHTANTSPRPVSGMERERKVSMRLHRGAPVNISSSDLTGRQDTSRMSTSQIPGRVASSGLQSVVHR
How it was run: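 GST-cleaved human recombinant CSNK1D phosphorylates peptide PLSRTL-pS-VASLPGL with ATP; compounds added in dose-response, 45 min at room temperature. ADP formed measured by ADP-Glo luminescence and converted to percent activity.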

T1 sequence (P48730 whole entry): as above

Row | SMILES | IC50 (human CSNK1D) | IC50 [1]
1 | [2H]C([2H])([2H])C1(C([2H])([2H])[2H])Cc2c(-c3c(F)c(C)nc4[nH]ncc34)c(-c3ccc(F)cn3)nn2C1 [Example 244, 5-Fluoro-4-[2-(5-fluoro-2-pyridyl)-5,5-bis(methyl-d3)-4,6-dihydropyrrolo[1,2-b]pyrazol-3-yl]-6-methyl-1H-pyrazolo[3,4-b]pyridine] | 29 nM | 4 nM
2 | CC1(C)CCn2nc(-c3ccc(F)cc3)c(-c3ccnc4[nH]ncc34)c21 [Example 245, 4-[2-(4-Fluorophenyl)-4,4-dimethyl-5,6-dihydropyrrolo[1,2-b]pyrazol-3-yl]-1H-pyrazolo[3,4-b]pyridine] | 43 nM | 5 nM
3 | Cc1cc(-c2c(-c3ccc(F)cc3)nn3c2C(C)(C)CC3)c2cn[nH]c2n1 [Example 246, 4-[2-(4-Fluorophenyl)-4,4-dimethyl-5,6-dihydropyrrolo[1,2-b]pyrazol-3-yl]-6-methyl-1H-pyrazolo[3,4-b]pyridine] | 58 nM | 5 nM
4 | Fc1ccc(-c2nn3c(c2-c2ccnc4[nH]ncc24)CC2(CC2)C3)cc1 [Example 247, 2-(4-Fluorophenyl)-3-(1H-pyrazolo[3,4-b]pyridin-4-yl)spiro[4,6-dihydropyrrolo[1,2-b]pyrazole-5,1′-cyclopropane]] | 13 nM | 2 nM
5 | Cc1cc(-c2c(-c3ccc(F)cc3)nn3c2CC2(CC2)C3)c2cn[nH]c2n1 [Example 248, 2-(4-Fluorophenyl)-3-(6-methyl-1H-pyrazolo[3,4-b]pyridin-4-yl)spiro[4,6-dihydropyrrolo[1,2-b]pyrazole-5,1′-cyclopropane]] | 6 nM | 2 nM
6 | Fc1ccc(-c2nn3c(c2-c2ccnc4[nH]ncc24)CCC32CC2)nc1 [Example 249, 2-(5-Fluoro-2-pyridyl)-3-(1H-pyrazolo[3,4-b]pyridin-4-yl)spiro[4,5-dihydropyrrolo[1,2-b]pyrazole-6,1′-cyclopropane]] | 197 nM | 17 nM
7 | Fc1ccc(-c2nn3c(c2-c2ccnc4[nH]ncc24)C[C@H]2C[C@H]23)cc1 [Example 267, (4aR,5aR)-2-(4-Fluorophenyl)-3-(1H-pyrazolo[3,4-b]pyridin-4-yl)-4,4a,5,5a-tetrahydrocyclopropa[4,5]pyrrolo[1,2-b]pyrazole] | 131 nM | 6 nM
8 | Fc1ccc(-c2nn3c(c2-c2ccnc4[nH]ncc24)C[C@@H]2C[C@@H]23)cc1 [Example 268, (4aS,5aS)-2-(4-Fluorophenyl)-3-(1H-pyrazolo[3,4-b]pyridin-4-yl)-4,4a,5,5a-tetrahydrocyclopropa[4,5]pyrrolo[1,2-b]pyrazole] | 5 nM | 1 nM
9 | Cc1cc(-c2c(-c3ccc(F)cc3)nn3c2C[C@H]2C[C@H]23)c2cn[nH]c2n1 [Example 269] | 73 nM | 6 nM
10 | Cc1cc(-c2c(-c3ccc(F)cc3)nn3c2C[C@@H]2C[C@@H]23)c2cn[nH]c2n1 [Example 270] | 8 nM | 1 nM
11 | Fc1ccc(-c2nn3c(c2-c2ccnc4[nH]nc(Cl)c24)C[C@@H]2C[C@@H]23)nc1 [Example 271, (4aS,5aS)-3-(3-Chloro-1H-pyrazolo[3,4-b]pyridin-4-yl)-2-(5-fluoropyridin-2-yl)-4,4a,5,5a-tetrahydrocyclopropa[4,5]pyrrolo[1,2-b]pyrazole] | 4 nM | 2 nM
12 | Fc1ccc(-c2nn3c(c2-c2c(F)cnc4[nH]ncc24)C[C@@H]2C[C@@H]23)nc1 [Example 272, (4aS,5aS)-3-(5-Fluoro-1H-pyrazolo[3,4-b]pyridin-4-yl)-2-(5-fluoropyridin-2-yl)-4,4a,5,5a-tetrahydrocyclopropa[4,5]pyrrolo[1,2-b]pyrazole] | 71 nM | 2 nM
